From patent US20120276186A1, “SUSTAINED RELEASE LATANOPROST IMPLANT” (priority 2011, published 2012)
Values belong to the compound of their own block, whether it stands above or below them.

Assays:
[1] = solubility parameter; type: physicochemical
From the text: The solubility parameter for a substance is a numerical value which indicates the relative solvency behavior of that substance. The concept is discussed and defined in US 2008/0145403.
Latanoprost is very difficult to incorporate into biodegradable polymer matrices, because it is an oil. It has now been discovered, that this problem can be overcome by using a combination of high molecular weight PLA and PLGA polymers and fabricating the implant by melt extrusion or casting in an appropriate solvent. The oily drug substance (DS), i.e. latanoprost, helps plasticize the polymer and allows the production of a homogeneous polymer film. […] It has been determined that dichloromethane is a good solvent for PLA and PLGA, which have solubility parameters of about 21.1 MPa^0.5 and about 22.1 MPa^0.5, respectively. Thus, a solvent having a solubility parameter of from 17.1 to 26.1 MPa^0.5, preferably from 17.6 to 25.6, e.g. 21.1 or 22.1 MPa^0.5 may be used in the practice of this invention. Such solvents may include dichloromethane, isopropanol, ethanol, acetonitrile and octanol.

[2] = cited from earlier work

Compound: PEG 3350
- solubility parameter [1]: about 20 MPa^0.5

Compound: ClCCl [dichloromethane]
- solubility parameter [1]: 19.8 MPa^0.5

Compound: poly(D,L-lactide-co-glycolide) [PLGA]
- solubility parameter [1]: about 22.1 MPa^0.5

Compound: poly(D,L-lactide) [PLA]
- solubility parameter [1]: about 21.1 MPa^0.5

- solubility parameter [1]: 22-24 MPa^0.5
Compound: CC(C)OC(=O)CCC/C=C\C[C@@H]1[C@@H](CC[C@@H](O)CCc2ccccc2)[C@H](O)C[C@@H]1O [Latanoprost]
- solubility in organic solvents ([2]; acetone, ethanol, ethyl acetate, isopropanol, methanol and octanol): freely soluble
- solubility in acetonitrile ([2]; acetonitrile): very soluble
- solubility in water ([2]; water): practically insoluble
